# Results reported in PMC10897151, “Nature-inspired peptide of MtDef4 C-terminus tail enables protein delivery in mammalian cells” (Scientific Reports, 2024).
# Peptide text beside a SMILES is read from it.
# Tests used:
# HeLa cells [1] = test: Confocal microscopy imaging of cellular penetration; type: cell-based
# Method: To this end, we explored the internalization kinetics of FITC-GMA4C into the cells. At the outset, we performed a dose–response investigation using a twofold dilution, identifying optimal conditions at 6uM for peptide visualization (Figs. 2 and 3). Subsequently, HeLa cells were cultured with 6 µM FITC-GMA4C and imaged at different time points.
# Figure 4 Time response of FITC-GMA4C uptake into HeLa cells. (A) Cells were cultured with 6 µM of FITC-GMA4C at 37 °C, followed by PBS washing and subsequent fixation with 4% PFA and post-fixation staining with DAPI. Images of cells were taken by confocal microscopy visualizing FITC-GMA4C (green) and DAPI (Blue). Scale bar: 100 µm. (B) Quantification of FITC-GMA4C fluorescence intensity. Bars show the mean green fluorescence intensity relative to non-treated cells and normalized to the number of cells. Values were measured using the Color Threshold tab in Fiji. […]
# Given the remarkable rate and efficiency of the free peptide cellular penetration, we further investigated its capacity to enhance the delivery of large biomolecules into cells. For that purpose, we evaluated the cellular permeabilization of recombinant GFP, expressed and purified with an N- or C-terminus fusion of GMA4C: GFP, GMA4C-GFP and GFP-GMA4C, respectively (Fig. S1). […] Subsequently, we quantified the cellular uptake of the exogenous proteins using flow cytometry analysis. […]
# HeLa cells [2] = test: Flow cytometry analysis of cellular uptake; type: cell-based; conditions: free FITC 25 µM, 2 h, trypsin treated
# Method: To evaluate the capability of GMA4C to penetrate mammalian cells, we synthesized the peptide with a fluorescein isothiocyanate (FITC) fluorescent probe at its N-terminus (FITC-GMA4C). Subsequently, we incubated HeLa cells with varying concentrations of FITC-GMA4C for two hours. After thorough washing, we visualized the cells using confocal microscopy imaging. Remarkably, we observed the accumulation and intracellular localization of FITC-GMA4C within the cells, even at low micromolar concentrations (Figs. 3A,B, and S7A). The entry of FITC-GMA4C is depicted by green dots within the cells, indicating effective peptide transduction. […] To ensure that the detected fluorescence signal originated only from peptides internalized within the cells and not from peptides bound to the cell membrane, we washed the cells and subjected them to trypsin treatment at 37 °C. […]
# Figure 3 Characterization of GMA4C penetration into HeLa cells by confocal imaging and flow cytometry analysis. […] (B) Quantification of FITC-GMA4C fluorescence intensity. Bars show the mean green fluorescence intensity relative to non-treated cells and normalized to the number of cells. Values were measured using the Color Threshold tab in Fiji. […] (C) Quantification of FITC-GMA4C peptide uptake by cells. […] (D) Quantitative evaluation of flow cytometry signal intensity. Values were measured using FloJo flow cytometry software. […]
Molecule,time at which significant uptake is observed (HeLa cells [1]),time to reach uptake equilibrium (HeLa cells [1]) [min],accumulation in the cell (HeLa cells [2])
C[C@@H](O)[C@H](NC(=O)[C@H](CS)NC(=O)[C@H](Cc1ccccc1)NC(=O)[C@H](CS)NC(=O)[C@H](CCCNC(=N)N)NC(=O)[C@H](CCCNC(=N)N)NC(=O)[C@H](CCCNC(=N)N)NC(=O)[C@H](Cc1ccccc1)NC(=O)CNC(=O)[C@H](CCCNC(=N)N)NC(=O)[C@H](CS)NC(=O)[C@H](CCCNC(=N)N)NC(=O)CN)C(=O)N[C@H](C(=O)N[C@@H](Cc1c[nH]cn1)C(=O)N[C@@H](CS)C(=O)O)[C@@H](C)O [GMA4C] (H-GRCRGFRRRCFCTTHC-OH; N-terminus and C-terminus assumed),under 15 min,≤ 30,
fluorescein isothiocyanate [free-FITC],,,only slightly accumulated
